Where no end group is shown, it is not given here.

The source of these data is article PMC3462190, “A Peptidic Unconjugated GRP78/BiP Ligand Modulates the Unfolded Protein Response and Induces Prostate Cancer Cell Death” (PLoS ONE, 2012).

B1: Bag-1 peptide: internal sequence of 68 amino acids of Bag-1 (Bag1-L 202–269), HA-tagged, expressed from pcDNA3 (peptide)
chain: TPLSALGIQDGCRVMLIGKKNSPQEEVELKKLKHLEKSVEKIADQLEELNKELTGIQQGFLPKDLQAE
modifications: also: HA tag, end not given here

The test system of the test is 22Rv.1 cells. The test is described as follows: Clonogenic assay. It counts as cell-based. The note with it: neomycin selection, colonies quantified; mean ± SEM of at least three independent experiments. An excerpt: Figure 5 An N-terminal unfolded fragment of the Bag-1 peptide is sufficient to reduce tumor cell growth. A. Schematic diagram of the Bag-1 peptide and its deletion mutants. The ubiquitin-like domain is represented in blue and the BAG domain in red. The numbers refer to the amino acid positions of the different domains. The amino acid residues are numbered following the numbering for Bag-1L. B. Prediction of the secondary structure of the Bag-1 peptide, showing an N-terminal β-hairpin from the ubiquitin-like domain (blue) and a C-terminal α-helix from the BAG domain (red). C. Normalized circular dichroism spectra of the Bag-1 peptides. 30 µM of the Bag-1 peptide were measured in 20 mM KHPO4 buffer, pH 6.8 (black line). Its α-helical content was estimated to be approximately 25% by deconvolution of the spectra (red line). 12 µM of the N-term peptide (green line) and 11 µM of C-term (blue line) were measured under the same conditions. D. ^1H^15N-HSQC NMR spectrum of ^15N-labeled Bag-1 peptide (202–269) in 20 mm KHPO4 buffer, pH 6.8, at 23°C. […] The Hδ and Hε side chain signals of asparagine and glutamine are connected by thin lines. E. The N-terminal region of the Bag-1 peptide is important for GRP78 binding. 400 µg of 22Rv.1 cell lysate were incubated with glutathione-agarose beads carrying 15 µg GST-N-term peptide (lane 2), GST-C-term peptide (lane 3), GST-ΔUbi peptide (lane 4), GST-Bag-1(202–269) peptide (lane 5) and GST (lane 6). The beads were washed and the bound proteins were separated by 10% SDS-PAGE and subjected to Western blotting using antibodies directed against GRP78 or GST. […] F. Clonogenic assay of the Bag-1 peptides expressed in 22Rv.1 cells. Cells transfected with the indicated constructs were selected in medium containing neomycin and the colonies formed were quantified. Shown are the mean value ±SEM of at least three independent experiments using three different plasmid preparations (*p<0.05). […] Six-week old athymic nude mice were injected subcutaneously on both flanks with 5×10^6 cells of each stable clone. Tumor size was measured once per week using a caliper and expressed as tumor volume in mm^3. Shown are the tumor volumes of clones transfected with the N-terminal peptide (G), the C-terminal peptide (H) and the ΔUbi peptide (I). Each point represents the mean volume and standard deviation of at least 5 to 10 tumors.
Figure 6 Selectivity of action of the Bag-1 peptide. A Amino acid sequence of the 19mer peptide and its deletion mutants. B GST pull-down assay performed incubating 400 µg of 22Rv.1 cell lysate and 25 µg of GST-fused deletion mutants of the 19mer peptide. After the pull-down experiment, Western blots were carried out with anti-GRP78/BiP and GST antibodies. C. Fluorescence polarization (FP) assays with a 10 nM FITC-labeled 7-mer Bag-1 peptide and dilutions of the GST-fused substrate binding domain of GRP78 in 60 µl of Tris-GSH buffer (50 mM Tris, 10 mM reduced glutathione and 0.1% BSA, pH 8.0). Triplicate samples were measured after 5 h of incubation at room temperature with an Infinite F-200 reader (Tecan) with excitation at 490 nm and emission at 535 nm. Binding constants were determined from three independent experiments using non-linear regression in Sigma Plot 10.0. D. Competition assays with a complex of 10 nM of FITC-labeled Bag-1 7-mer peptide and 0.75 mg/ml GST-fused GRP78 substrate binding domain was measured against a dilution series from 100 µM to 0.1 nM of wild-type Bag-1 7-mer peptide (filled line) or triple mutant peptide (dotted line) in 40 µl of Tris-GSH buffer. FITC-peptide and the FITC-peptide-protein complex were used as controls. Fluorescence polarization was determined as described above and IC50 values were determined in Sigma Plot. […]
For the molecule “19-mer: Bag-1L 202–220 (TPLSALGIQDGCRVMLIGK; not fully specified)”, the “22Rv.1 growth in clonogenic assay” value is on record as “inhibit 22Rv.1 cell growth”. For “C-terminal peptide: 28 C-terminal fragment of the Bag-1 peptide (Bag-1L 241–269) (EKIADQLEELNKELTGIQQGFLPKDLQAE; not fully specified)” the value was “ineffective”; for “N-terminal peptide: N-terminal 40 residues of the Bag-1 peptide (Bag-1L 202–241) (TPLSALGIQDGCRVMLIGKKNSPQEEVELKKLKHLEKSVE; not fully specified)”, “inhibited growth of the 22Rv.1 cells”; for “ΔUbi peptide: Bag-1 peptide lacking the ubiquitin-like domain portion (Bag-1L 220–269) (KKNSPQEEVELKKLKHLEKSVEKIADQLEELNKELTGIQQGFLPKDLQAE; not fully specified)”, “ineffective”. For B1 the value was “inhibited growth of the 22Rv.1 cells”.
